# Patent US20170081338A1, “SUBSTITUTED HETEROARYL COMPOUNDS AND METHODS OF USE” (Sunshine Lake Pharma Co., Ltd., priority 2015, published 2017)
# How the values were obtained:
# JAK2 (h) = target: T1, JAK2 (h) (Homo sapiens, UniProt O60674); assay: JAK2 (h) kinase assay; assay type: biochemical
# T1 construct: purchased Millipore UK Ltd (contract assay service)
# Protocol: Kinase assays can be performed by measurement of incorporation of γ-^33P ATP into immobilized myelin basic protein (MBP). High binding white 384 well plates (Greiner) are coated with MBP (Sigma #M-1891) by incubation of 60 μL/well of 20 μg/mL MBP in Tris-buffered saline (TBS; 50 mM Tris pH 8.0, 138 mM NaCl, 2.7 mM KCl) for 24 h at 4° C. Plates are washed 3× with 100 μL TBS. Kinase reactions are carried out in a total volume of 34 μL in kinase buffer (according to the need to make, for example, 5 mM Hepes pH 7.6, 15 mM NaCl, 0.01% bovine gamma globulin (Sigma #1-5506), 10 mM MgCl2, 1 mM DTT, 0.02% TritonX-100). Compound dilutions are performed in DMSO and added to assay wells to a final DMSO concentration of 1%. Each data point is measured in duplicate, and at least two duplicate assays are performed for each individual compound determination. […] A mixture of unlabeled ATP and γ-^33P ATP is added to start the reaction (2×10^6 cpm of γ-^33P ATP per well (3000 Ci/mmole) and 10 μM unlabeled ATP, typically. The reactions are carried out for 1 h at room temperature with shaking. Plates are washed 7× with TBS, followed by the addition of 50 µL/well scintillation fluid (Wallac). Plates are read using a Wallac Trilux counter. This is only one format of such assays; various other formats are possible, as known to one skilled in the art. […]
# JAK1 (h) = target: T2, JAK1 (h) (Homo sapiens, UniProt P23458); assay: JAK1 (h) kinase assay; assay type: biochemical
# T2 construct: purchased Millipore UK Ltd (contract assay service)
# Protocol: (§1) Kinase assays can be performed by measurement of incorporation of γ-^33P ATP into immobilized myelin basic protein (MBP). High binding white 384 well plates (Greiner) are coated with MBP (Sigma #M-1891) by incubation of 60 μL/well of 20 μg/mL MBP in Tris-buffered saline (TBS; 50 mM Tris pH 8.0, 138 mM NaCl, 2.7 mM KCl) for 24 h at 4° C. Plates are washed 3× with 100 μL TBS. Kinase reactions are carried out in a total volume of 34 μL in kinase buffer (according to the need to make, for example, 5 mM Hepes pH 7.6, 15 mM NaCl, 0.01% bovine gamma globulin (Sigma #1-5506), 10 mM MgCl2, 1 mM DTT, 0.02% TritonX-100). Compound dilutions are performed in DMSO and added to assay wells to a final DMSO concentration of 1%. Each data point is measured in duplicate, and at least two duplicate assays are performed for each individual compound determination. Enzyme is added to final concentrations of 10 nM or 20 nM, for example. A mixture of unlabeled ATP and γ-^33P ATP is added to start the reaction (2×10^6 cpm of γ-^33P ATP per well (3000 Ci/mmole) and 10 μM unlabeled ATP, typically. The reactions are carried out for 1 h at room temperature with shaking. Plates are washed 7× with TBS, followed by the addition of 50 µL/well scintillation fluid (Wallac). Plates are read using a Wallac Trilux counter. This is only one format of such assays; various other formats are possible, as known to one skilled in the art.
# (§2) The above assay procedure can be used to determine the IC50 for inhibition and/or the inhibition constant, Ki. The IC50 is defined as the concentration of compound required to reduce the enzyme activity by 50% under the condition of the assay. The IC50 value is estimated by preparing a 10 point curve using a 1/2 log dilution series (for example, a typical curve may be prepared using the following compound concentrations: 3 μM, 1 μM, 0.3 μM, 0.1 μM, 0.03 μM, 0.01 μM, 0.003 μM, 0.001 μM, 0.0003 μM and 0 μM).
# JAK1 (h) is incubated with 20 mM Tris/HCl pH 7.5, 0.2 mM EDTA, 500 μM GEEPLYWSFPAKKK, 10 mM MgAcetate and [γ-^33P-ATP] (specific activity approx. 500 cpm/pmol, concentration as required). The reaction is initiated by the addition of the MgATP mix. After incubation for 40 minutes at room temperature, the reaction is stopped by the addition of 3% phosphoric acid solution. 10 μL of the reaction is then spotted onto a P30 filtermat and washed three times for 5 minutes in 75 mM phosphoric acid and once in methanol prior to drying and scintillation counting.
# (§3) The kinase assays described herein were performed at Millipore UK Ltd, Dundee Technology Park, Dundee DD2 1SW, UK.
# [1] = Compound stability in rat liver microsomes; assay type: in vitro ADME; conditions: pH 7.4; for half-life at 5 μM: rat liver microsomes 0.5 mg protein/mL, compound 5 μM, NADPH, 37° C., read-out: Rat T1/2; for CLint scaled at 5 μM: rat liver microsomes, in vivo CLint extrapolated
# Method in brief: (§4)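 Parent compound depletion (5 μM) was tracked by LC/MS/MS over 60 min at 37° C using NADPH-fortified microsomes at 0.5 mg protein/mL. Dextromethorphan served as positive control and denatured microsomes as negative control.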
# [2] = Compound stability in human liver microsomes; assay type: in vitro ADME; conditions: pH 7.4; for half-life at 5 μM: human liver microsomes 0.5 mg protein/mL, compound 5 μM, NADPH, 37° C., read-out: Human T1/2; for CLint scaled at 5 μM: human liver microsomes, in vivo CLint extrapolated
# Method in brief: as §4
# Aurora-B (h) = target: T3, Aurora-B (h) (Homo sapiens, UniProt Q96GD4); assay: Aurora-B (h) kinase assay; assay type: biochemical
# T3 construct: purchased Millipore UK Ltd (contract assay service)
# Protocol: as §1, §2
# Aurora-B (h) is incubated with 8 mM MOPS pH 7.0, 0.2 mM EDTA, 30 μM AKRRRLSSLRA, 10 mM MgAcetate and [γ-^33PATP] (specific activity approx. 500 cpm/pmol, concentration as required). The reaction is initiated by the addition of the MgATP mix. After incubation for 40 minutes at room temperature, the reaction is stopped by the addition of a 3% phosphoric acid solution. 10 μL of the reaction is then spotted onto a P30 filtermat and washed three times for 5 minutes in 75 mM phosphoric acid and once in methanol prior to drying and scintillation counting.
# as §3
# T2 sequence (P23458 whole entry): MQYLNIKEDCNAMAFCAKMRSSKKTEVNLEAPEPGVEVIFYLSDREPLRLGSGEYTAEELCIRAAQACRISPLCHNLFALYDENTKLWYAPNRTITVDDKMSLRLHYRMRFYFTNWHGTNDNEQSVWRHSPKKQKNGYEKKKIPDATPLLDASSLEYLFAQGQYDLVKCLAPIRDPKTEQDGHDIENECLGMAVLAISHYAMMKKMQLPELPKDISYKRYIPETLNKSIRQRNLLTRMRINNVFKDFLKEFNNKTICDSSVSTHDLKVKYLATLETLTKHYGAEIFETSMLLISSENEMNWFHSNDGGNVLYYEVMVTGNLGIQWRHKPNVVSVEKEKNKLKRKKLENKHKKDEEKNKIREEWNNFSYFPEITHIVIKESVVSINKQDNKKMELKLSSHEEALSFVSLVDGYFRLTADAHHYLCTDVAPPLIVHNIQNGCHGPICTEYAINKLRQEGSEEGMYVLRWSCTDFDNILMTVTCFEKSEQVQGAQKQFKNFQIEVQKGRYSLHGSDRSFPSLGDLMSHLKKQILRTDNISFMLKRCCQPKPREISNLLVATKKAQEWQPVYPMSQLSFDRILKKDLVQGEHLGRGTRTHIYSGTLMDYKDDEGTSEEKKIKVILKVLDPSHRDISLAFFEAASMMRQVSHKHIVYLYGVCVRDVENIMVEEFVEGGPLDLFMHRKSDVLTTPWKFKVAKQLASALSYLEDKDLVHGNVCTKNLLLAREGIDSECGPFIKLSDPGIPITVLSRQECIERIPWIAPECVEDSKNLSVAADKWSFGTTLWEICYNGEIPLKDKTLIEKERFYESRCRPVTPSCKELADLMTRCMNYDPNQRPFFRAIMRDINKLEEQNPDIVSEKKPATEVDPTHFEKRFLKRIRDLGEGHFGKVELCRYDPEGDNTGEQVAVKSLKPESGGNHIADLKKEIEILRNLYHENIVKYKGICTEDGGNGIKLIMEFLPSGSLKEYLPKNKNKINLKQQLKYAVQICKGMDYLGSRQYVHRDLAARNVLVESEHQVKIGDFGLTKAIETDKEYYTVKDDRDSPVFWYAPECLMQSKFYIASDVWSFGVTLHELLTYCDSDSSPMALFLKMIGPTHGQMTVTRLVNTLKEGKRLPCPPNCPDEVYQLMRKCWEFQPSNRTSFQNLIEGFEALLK
# T3 sequence (Q96GD4 whole entry): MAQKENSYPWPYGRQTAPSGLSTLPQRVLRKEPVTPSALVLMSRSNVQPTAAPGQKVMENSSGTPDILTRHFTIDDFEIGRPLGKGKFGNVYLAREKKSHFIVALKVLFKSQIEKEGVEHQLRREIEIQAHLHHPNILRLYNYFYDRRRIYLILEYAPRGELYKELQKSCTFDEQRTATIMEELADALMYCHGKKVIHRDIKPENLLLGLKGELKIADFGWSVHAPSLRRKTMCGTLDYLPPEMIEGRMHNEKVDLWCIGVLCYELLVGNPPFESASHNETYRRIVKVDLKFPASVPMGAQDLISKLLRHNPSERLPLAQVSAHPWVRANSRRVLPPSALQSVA
# T1 sequence (O60674 whole entry): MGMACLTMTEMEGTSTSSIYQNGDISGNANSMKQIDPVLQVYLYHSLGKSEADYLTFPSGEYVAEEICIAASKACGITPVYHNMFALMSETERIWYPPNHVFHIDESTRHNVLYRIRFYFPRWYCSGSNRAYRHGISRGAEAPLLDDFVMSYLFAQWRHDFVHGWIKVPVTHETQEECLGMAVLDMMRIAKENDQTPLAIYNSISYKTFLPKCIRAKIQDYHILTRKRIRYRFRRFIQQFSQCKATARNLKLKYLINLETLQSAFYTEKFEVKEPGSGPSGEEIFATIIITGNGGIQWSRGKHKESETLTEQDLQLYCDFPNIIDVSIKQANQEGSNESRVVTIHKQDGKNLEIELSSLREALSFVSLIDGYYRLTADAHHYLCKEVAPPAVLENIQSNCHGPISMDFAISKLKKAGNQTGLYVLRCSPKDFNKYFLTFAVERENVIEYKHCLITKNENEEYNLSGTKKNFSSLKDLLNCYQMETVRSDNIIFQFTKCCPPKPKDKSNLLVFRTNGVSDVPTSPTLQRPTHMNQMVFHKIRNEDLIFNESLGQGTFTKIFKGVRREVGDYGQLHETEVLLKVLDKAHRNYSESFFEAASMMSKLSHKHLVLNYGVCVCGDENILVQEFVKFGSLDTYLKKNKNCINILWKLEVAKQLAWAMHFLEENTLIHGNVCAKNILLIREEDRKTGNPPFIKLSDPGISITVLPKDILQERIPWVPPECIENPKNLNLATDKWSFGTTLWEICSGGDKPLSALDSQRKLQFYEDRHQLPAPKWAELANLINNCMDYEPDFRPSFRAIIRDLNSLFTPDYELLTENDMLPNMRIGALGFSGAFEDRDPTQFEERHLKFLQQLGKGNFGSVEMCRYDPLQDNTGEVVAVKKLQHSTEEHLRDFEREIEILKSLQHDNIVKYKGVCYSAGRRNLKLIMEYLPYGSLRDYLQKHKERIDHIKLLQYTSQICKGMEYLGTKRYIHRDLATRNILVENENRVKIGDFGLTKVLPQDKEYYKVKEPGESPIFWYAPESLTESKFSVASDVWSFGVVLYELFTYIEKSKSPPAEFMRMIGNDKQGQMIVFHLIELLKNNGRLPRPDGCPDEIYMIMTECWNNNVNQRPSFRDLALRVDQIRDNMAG
IC50 (JAK2 (h)),IC50 (JAK1 (h)),half-life at 5 μM [1],CLint scaled at 5 μM [1],half-life at 5 μM [2],CLint scaled at 5 μM [2],IC50 (Aurora-B (h)),Compound
350 nM,43 nM,1.12 h,36.9 mL/min/kg,0.617 h,47 mL/min/kg,29 nM,"CC(C)CS(=O)(=O)N[C@H]1COC2C1OC[C@H]2Nc1nc(Nc2cnn(C)c2)ncc1Cl (stereo partly drawn) [Ex. 2, N-((3S,6R)-6-((5-chloro-2-((1-methyl-1H-pyrazol-4-yl)amino)pyrimidin-4-yl)amino)hexahydrofuro[3,2-b]furan-3-yl)-2-methylpropane-1-sulfonamide]"
,27 nM,1.16 h,35.6 mL/min/kg,1.39 h,20.8 mL/min/kg,24 nM,"Cn1cc(Nc2ncc(Cl)c(N[C@@H]3COC4C3OC[C@@H]4NS(=O)(=O)CC3CC3)n2)cn1 (stereo partly drawn) [Ex. 25, N-((3S,6R)-6-((5-chloro-2-((1-methyl-1H-pyrazol-4-yl)amino)pyrimidin-4-yl)amino)hexahydrofuro[3,2-b]furan-3-yl)-1-cyclopropylmethanesulfonamide]"
,94 nM,0.682 h,60.7 mL/min/kg,0.561 h,51.7 mL/min/kg,11 nM,"Cn1cc(Nc2ncc(Cl)c(N[C@@H]3COC4C3OC[C@@H]4NS(=O)(=O)CC(C)(C)C#N)n2)cn1 (stereo partly drawn) [Ex. 26, N-((3S,6R)-6-((5-chloro-2-((1-methyl-1H-pyrazol-4-yl)amino)pyrimidin-4-yl)amino)hexahydrofuro[3,2-b]furan-3-yl)-2-cyano-2-methylpropane-1-sulfonamide]"
,7 nM,0.942 h,44 mL/min/kg,3.16 h,9.16 mL/min/kg,8 nM,"Cn1cc(Nc2ncc(Cl)c(N[C@@H]3COC4C3OC[C@@H]4NS(=O)(=O)CC(F)(F)F)n2)cn1 (stereo partly drawn) [Ex. 27, N-((3S,6R)-6-((5-chloro-2-((1-methyl-1H-pyrazol-4-yl)amino)pyrimidin-4-yl)amino)hexahydrofuro[3,2-b]furan-3-yl)-2,2,2-trifluoroethanesulfonamide]"
